Article PMC12114375, “Discovery of Hydrazineyl Amide Derivative of Pseudolaric Acid B for Reprogramming Tumor-Associated Macrophages Against Tumor Growth” (Molecules, 2025)

Assays:
Assay type in all cases: cell-based, mouse
[1] = tested on: ARG1, NOS2, CD206 and MHC II mRNA expression in RAW 264.7 cells; assay: qRT-PCR of ARG1, NOS2, CD206, MHC II in RAW264.7 cells at multiple concentrations; conditions: RAW 264.7 cells stimulated with IL-4/IL-13, multiple concentrations, 12 h
Description: We also extended the test to primary murine macrophages derived from bone marrow (BMDMs), which were cultured in vitro with recombinant mouse M-CSF for 6 days. The BMDMs were then stimulated with IL-4/IL-13, leading to their transformation into M2-like pro-tumoral macrophages. This transformation was characterized by an increase in both ARG1 and CD206 expression and a decrease in both NOS2 and MHC II expression. […] Subsequently, we assessed the capacity of compound 12 to inhibit the M2-like polarization of macrophages using CSF-1-differentiated mouse BMDMs. These cells were treated with IL-4 and IL-13 for 48 h, and the expression levels of CD206, an M2-type marker, and CD86, an M1-type marker, were analyzed via flow cytometry. […]
Figure 2 Compound 12 inhibits the M2-like polarized phenotype of macrophages. […] The expression levels of the markers CD206 and CD86 on induced macrophages were determined by flow cytometry, and the mean fluorescence intensity (MFI) was analyzed with FlowJo (C), or the cells were lysed and immunoblotted to detect the indicated proteins (D). […] Data are represented as means ± SD. ^### p < 0.001 vs. non-stimulated control group, * p < 0.05, ** p < 0.01, *** p < 0.001 vs. stimulated control group. p-values were determined using one-way ANOVA.

[2] = tested on: ARG1 mRNA expression in RAW 264.7 cells; assay: qRT-PCR of ARG1 mRNA in IL-4/IL-13-stimulated RAW 264.7 cells; conditions: Mus musculus, RAW264.7, IL-4/IL-13 (20 ng/mL) plus compound 10 μM, 12 h, stimulated control = 100%, mean ± SD, read-out: ARG1 mRNA Relative Expression (%)
From the text: (§1) We first investigated the impacts of a series of commercially available natural pseudolaric acids or their O-pyranosides (Figure 1) on the pro-tumoral phenotype of TAMs, which play a critical role in anti-tumor immune response modulation. […] In contrast, M1-biased macrophages combat tumor growth and bacterial infections by expressing inducible nitric oxide synthase 2 (NOS2), which catalyzes the production of nitric oxide (NO). Recognizing the pivotal roles of ARG1 and NOS2, we utilized these molecules as key biomarkers and effectors for assessing macrophage immune function. In our experiments, the mouse monocyte–macrophage leukemia cell line RAW 264.7 was induced with IL-4/IL-13 to acquire an M2-like pro-tumoral phenotype. Concurrently, the cells were treated with the pseudolaric acid-related natural products 1–7 at a concentration of 10 μM for 12 h. Additionally, PLX3397 was used as a positive control at a concentration of 0.5 μM. […] As shown in Table 1 and Figure S1A, pseudolaric acid B (1), its deacetoxyl analogue 2 (pseudolaric acid C), and β-D-glucoside 7 substantially attenuated the upregulation of ARG1 mRNA expression induced by IL-4/IL-13, with statistically significant effects. In contrast, bis-carboxylic acids analogs 4 (pseudolaric acid C2) and 6 (demethoxydeacetoxypseudolaric acid B) have no significant impact on ARG1 mRNA expression.
(§2) With these carboxylic acid-modified derivatives in hand, we investigated their impact at 10 μM on ARG1 and NOS2 mRNA expression in RAW 264.7 cells pre-stimulated with IL-4/IL-13 to evaluate the effects on the pro-tumor phenotype of macrophages. […] Further removal of one hydroxyl from the glycerol moiety 15 further enhanced the inhibitory effect on ARG1 expression but had no significant impact on NOS2 expression.
(§3) Total RNA was isolated from cells using the EZ-press RNA Purification Kit (EZBioscience, Suzhou, China) and subjected to reverse transcription with the 5×HiScript II qRT SuperMix II (Vazyme, Nanjing, China). PCR was performed with the 2×ChamQ Universal SYBR qPCR Master Mix (Vazyme, Nanjing, China). All primers for qRT-PCR are described in Table S1. The 2^−∆∆Ct method was utilized to calculate the fold change in gene expression, with the expression levels in the stimulated group set as the baseline for normalization.

Raw264.7 cells = assay: Cell viability (CCK-8) of RAW264.7 cells; conditions: IL-4/IL-13 plus compound 10 μM, 12 h
Description: Cells were seeded in 96-well tissue culture plates. On the next day, cells were exposed to various concentrations of compounds and further cultured for the indicated period. Finally, cell proliferation was determined by using the Cell Counting Kit (CCK-8) (Dojindo, Kumamoto, Japan) assay.
Figure S2. Effects of natural pseudolaric acids 1-4, 6 and their O-pyranosides 5, 7 as well as the derivatives 8-18 o f 1 on Raw264.7 cell viability. Raw264.7 cells were treated with IL-4/IL-13 alone or combined with indicated compounds (10 μM) for 12 h. After incubation, the cell viability was determined using a cell counting kit (CCK-8, Dojindo, Japan) assay.
(1 picture or pasted object on this page, not shown here)

[3] = tested on: NOS2 mRNA expression in RAW 264.7 cells; assay: qRT-PCR of NOS2 mRNA in IL-4/IL-13-stimulated RAW 264.7 cells; conditions: Mus musculus, RAW264.7, IL-4/IL-13 (20 ng/mL) plus compound 10 μM, 12 h, stimulated control = 100%, mean ± SD, read-out: NOS2 mRNA Relative Expression (%)
From the text: as §1, §2, §3

COC(=O)C1=CC[C@@]23CC[C@@H]([C@@](C)(/C=C/C=C(\C)C(=O)O)OC2=O)[C@@]3(OC(C)=O)CC1 [compound 1, pseudolaric acid B]
mRNA expression levels of ARG1 and CD206 [1]: significantly reduced
mRNA expression levels of NOS2 and MHC II [1]: upregulated the mRNA expression levels of NOS2 and MHC II in a dose-dependent manner
mrna remaining at 10 µM [2]: 9.9 ± 0.8%
cell viability (Raw264.7 cells): only a minimal reduction in cell viability
activity at 10 µM [3]: 135 ± 19.5%
